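Protocol summary: plate cells (96-well), add compound at 5 concentrations, incubate 48 h, interpolate endpoints linearly. Definition used: TGI = concentration required for complete inhibition of growth.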 Where a SMILES comes first, the peptide text is derived from it. The star is where a group is joined. OSu = O=C1CCC(=O)N1O*
What follows are compounds tested on NCI-H460 lung (assay: DTP human tumour cell line panel, 48 h).
Work on `NC(N)=NS(=O)(=O)c1ccc(N=Nc2c(O)c(C(=O)O)cc3ccccc23)cc1` yielded a TGI of over 100 µM.

These compounds were tested on OVCAR-5 ovarian (assay: DTP human tumour cell line panel, 48 h).
`C=C(C)C12OC1[C@@]1(C)C(=CC2=O)CCC(O)[C@@H]1C` (stereo partly specified) was tested, and the TGI was over 100 µM. `Cc1ccc(-[n+]2cc([O-])on2)cc1` showed a TGI of over 100 µM. `C(=C/CCCN1O[C@@H](CCCCCCCCc2cccnc2)[C@H]2CCC[C@H]21)/CCCCCCCCCc1cccnc1` showed a TGI of 41.5 µM. With `NCCCCC(NC(=O)C(N)Cc1ccc(O)cc1)C(=O)NC(CCCCN)C(=O)NC(CCCCN)C(=O)ON1C(=O)CCC1=O` (stereo unspecified) (H-YKKK-OSu; configuration not given here) the TGI was over 100 µM. `Cc1ccc(S(=O)(=O)N2CC2CCCCC=O)cc1` (stereo unspecified) gave a TGI of over 100 µM. Compound `NC(N)=NS(=O)(=O)c1ccc(N=Nc2c(O)c(C(=O)O)cc3ccccc23)cc1` has a TGI of over 100 µM.

The compounds below were run on UO-31 renal (assay: DTP human tumour cell line panel, 48 h).
For `C=C(C)C12OC1[C@@]1(C)C(=CC2=O)CCC(O)[C@@H]1C` (stereo partly specified), the TGI was 41.9 µM. With `CCOC(=O)c1nnn(CCCCO)c1C(=O)OCC` the TGI was over 100 µM. In the case of `Cc1ccc(-[n+]2cc([O-])on2)cc1`, the TGI is reported as over 100 µM. Work on `C(=C/CCCN1O[C@@H](CCCCCCCCc2cccnc2)[C@H]2CCC[C@H]21)/CCCCCCCCCc1cccnc1` yielded a TGI of 40.5 µM. In the case of `NCCCCC(NC(=O)C(N)Cc1ccc(O)cc1)C(=O)NC(CCCCN)C(=O)NC(CCCCN)C(=O)ON1C(=O)CCC1=O` (stereo unspecified) (H-YKKK-OSu; configuration not given here), the TGI is reported as over 100 µM. Compound `Cc1ccc(S(=O)(=O)N2CC2CCCCC=O)cc1` (stereo unspecified) has a TGI of over 100 µM. Compound `NC(N)=NS(=O)(=O)c1ccc(N=Nc2c(O)c(C(=O)O)cc3ccccc23)cc1` has a TGI of over 100 µM.

The compounds below were run on SNB-75 CNS (assay: DTP human tumour cell line panel, 48 h).
Work on `C=C(C)C12OC1[C@@]1(C)C(=CC2=O)CCC(O)[C@@H]1C` (stereo partly specified) yielded a TGI of 38.8 µM. `CCOC(=O)c1nnn(CCCCO)c1C(=O)OCC` was tested, and the TGI was over 100 µM. Work on `C(=C/CCCN1O[C@@H](CCCCCCCCc2cccnc2)[C@H]2CCC[C@H]21)/CCCCCCCCCc1cccnc1` yielded a TGI of 51.4 µM. Compound `NCCCCC(NC(=O)C(N)Cc1ccc(O)cc1)C(=O)NC(CCCCN)C(=O)NC(CCCCN)C(=O)ON1C(=O)CCC1=O` (stereo unspecified) (H-YKKK-OSu; configuration not given here) has a TGI of over 100 µM. `Cc1ccc(S(=O)(=O)N2CC2CCCCC=O)cc1` (stereo unspecified) showed a TGI of over 100 µM. Work on `NC(N)=NS(=O)(=O)c1ccc(N=Nc2c(O)c(C(=O)O)cc3ccccc23)cc1` yielded a TGI of over 100 µM.

Each compound was assayed on BT-549 breast (assay: DTP human tumour cell line panel, 48 h).
Work on `C=C(C)C12OC1[C@@]1(C)C(=CC2=O)CCC(O)[C@@H]1C` (stereo partly specified) yielded a TGI of 50.8 µM. With `CCOC(=O)c1nnn(CCCCO)c1C(=O)OCC` the TGI was over 100 µM. In the case of `Cc1ccc(-[n+]2cc([O-])on2)cc1`, the TGI is reported as over 100 µM. `C(=C/CCCN1O[C@@H](CCCCCCCCc2cccnc2)[C@H]2CCC[C@H]21)/CCCCCCCCCc1cccnc1` gave a TGI of 95.7 µM. Work on `NCCCCC(NC(=O)C(N)Cc1ccc(O)cc1)C(=O)NC(CCCCN)C(=O)NC(CCCCN)C(=O)ON1C(=O)CCC1=O` (stereo unspecified) (H-YKKK-OSu; configuration not given here) yielded a TGI of over 100 µM. For `Cc1ccc(S(=O)(=O)N2CC2CCCCC=O)cc1` (stereo unspecified), the TGI was over 100 µM. `NC(N)=NS(=O)(=O)c1ccc(N=Nc2c(O)c(C(=O)O)cc3ccccc23)cc1` gave a TGI of over 100 µM.

The compounds below were run on SK-MEL-5 melanoma (assay: DTP human tumour cell line panel, 48 h).
With `C=C(C)C12OC1[C@@]1(C)C(=CC2=O)CCC(O)[C@@H]1C` (stereo partly specified) the TGI was 36.7 µM. `CCOC(=O)c1nnn(CCCCO)c1C(=O)OCC` gave a TGI of over 100 µM. Compound `Cc1ccc(-[n+]2cc([O-])on2)cc1` has a TGI of over 100 µM. `C(=C/CCCN1O[C@@H](CCCCCCCCc2cccnc2)[C@H]2CCC[C@H]21)/CCCCCCCCCc1cccnc1` showed a TGI of 43.7 µM. `NCCCCC(NC(=O)C(N)Cc1ccc(O)cc1)C(=O)NC(CCCCN)C(=O)NC(CCCCN)C(=O)ON1C(=O)CCC1=O` (stereo unspecified) (H-YKKK-OSu; configuration not given here) showed a TGI of over 100 µM. `Cc1ccc(S(=O)(=O)N2CC2CCCCC=O)cc1` (stereo unspecified) was tested, and the TGI was over 100 µM. With `NC(N)=NS(=O)(=O)c1ccc(N=Nc2c(O)c(C(=O)O)cc3ccccc23)cc1` the TGI was over 100 µM.

What follows are compounds tested on SK-OV-3 ovarian (assay: DTP human tumour cell line panel, 48 h).
`C(=C/CCCN1O[C@@H](CCCCCCCCc2cccnc2)[C@H]2CCC[C@H]21)/CCCCCCCCCc1cccnc1` showed a TGI of 47.2 µM. In the case of `Cc1ccc(S(=O)(=O)N2CC2CCCCC=O)cc1` (stereo unspecified), the TGI is reported as over 100 µM. In the case of `NC(N)=NS(=O)(=O)c1ccc(N=Nc2c(O)c(C(=O)O)cc3ccccc23)cc1`, the TGI is reported as over 100 µM.

The compounds below were run on SK-MEL-2 melanoma (assay: DTP human tumour cell line panel, 48 h).
`C=C(C)C12OC1[C@@]1(C)C(=CC2=O)CCC(O)[C@@H]1C` (stereo partly specified) showed a TGI of 20.1 µM. Compound `CCOC(=O)c1nnn(CCCCO)c1C(=O)OCC` has a TGI of over 100 µM. `Cc1ccc(-[n+]2cc([O-])on2)cc1` gave a TGI of over 100 µM. For `C(=C/CCCN1O[C@@H](CCCCCCCCc2cccnc2)[C@H]2CCC[C@H]21)/CCCCCCCCCc1cccnc1`, the TGI was 52.4 µM. In the case of `NCCCCC(NC(=O)C(N)Cc1ccc(O)cc1)C(=O)NC(CCCCN)C(=O)NC(CCCCN)C(=O)ON1C(=O)CCC1=O` (stereo unspecified) (H-YKKK-OSu; configuration not given here), the TGI is reported as over 100 µM. `Cc1ccc(S(=O)(=O)N2CC2CCCCC=O)cc1` (stereo unspecified) showed a TGI of over 100 µM. With `NC(N)=NS(=O)(=O)c1ccc(N=Nc2c(O)c(C(=O)O)cc3ccccc23)cc1` the TGI was over 100 µM.

These compounds were tested on HS 578T breast (assay: DTP human tumour cell line panel, 48 h).
`C=C(C)C12OC1[C@@]1(C)C(=CC2=O)CCC(O)[C@@H]1C` (stereo partly specified) showed a TGI of 9.26 µM. In the case of `CCOC(=O)c1nnn(CCCCO)c1C(=O)OCC`, the TGI is reported as over 100 µM.

Source: PubChem BioAssay (NCI)
